Earlier results, collected in US20080274189A1, “Organic Compounds Comprising a Glycopyrr Onium Salt” (priority 2005, published 2008).

Settings: aerosol formulation, single administration of a metered dose, asthma

SMILES: C[N+]1(C)CCC(OC(=O)C(O)(c2ccccc2)C2CCCC2)C1.[Br-] (racemic) [glycopyrrolate, 3-[(cyclopentyl-hydroxyphenylacetyl)oxy]-1,1-dimethylpyrrolidinium bromide]
- duration of bronchodilation: up to 12 hours
